How the values were obtained:
5-lipoxygenase = target: T1, 5-lipoxygenase (Rattus norvegicus, UniProt P12527); test: 5-lipoxygenase inhibition, 10,000×g supernatant from homogenized rat basophilic leukemia (RBL-1) cells; type: biochemical; details: RBL-1 10,000×g supernatant, pH 7.0, 5 min incubation with compound, 14C-arachidonic acid, 37° C., two minutes
T1 construct: endogenous in cells; host or cells: RBL-1 (rat basophilic leukemia) cells, 10,000×g supernatant of homogenate
T1 sequence (P12527 1-673): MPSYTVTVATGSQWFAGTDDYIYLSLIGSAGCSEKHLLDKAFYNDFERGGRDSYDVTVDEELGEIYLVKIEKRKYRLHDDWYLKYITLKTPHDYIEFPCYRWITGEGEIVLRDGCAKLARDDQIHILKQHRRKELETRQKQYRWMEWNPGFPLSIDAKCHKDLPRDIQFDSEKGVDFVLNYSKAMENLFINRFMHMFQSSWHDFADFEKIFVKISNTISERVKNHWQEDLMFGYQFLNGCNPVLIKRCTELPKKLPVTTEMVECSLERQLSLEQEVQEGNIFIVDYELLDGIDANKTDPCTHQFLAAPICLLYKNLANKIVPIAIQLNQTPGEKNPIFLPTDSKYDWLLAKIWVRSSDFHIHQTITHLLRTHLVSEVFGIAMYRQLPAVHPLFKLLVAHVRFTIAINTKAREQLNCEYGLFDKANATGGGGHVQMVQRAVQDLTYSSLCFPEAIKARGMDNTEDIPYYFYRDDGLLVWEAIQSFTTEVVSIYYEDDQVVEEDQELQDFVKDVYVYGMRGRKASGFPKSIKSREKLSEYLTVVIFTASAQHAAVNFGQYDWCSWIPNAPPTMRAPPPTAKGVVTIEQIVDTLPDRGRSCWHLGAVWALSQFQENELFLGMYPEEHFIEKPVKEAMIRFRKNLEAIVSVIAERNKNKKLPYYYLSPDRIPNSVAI
Description: The test method is a modification of the procedure developed by Jakschik et al. (Prostaglandins (1978) 16, 733; Biochem. Biophys. Res. Commun. (1980) 95, 103; Biochem. Biophys. Res. Commun. (1981) 102, 624).
The 10,000×g supernatant from homogenized RBL-1 cells was incubated with test compound in a pH 7.0 phosphate buffer for five minutes. ^14 C-arachidonic acid was added to initiate the reaction, which was allowed to continue at 37° C. for two minutes. The reaction was stopped by freezing in a dry ice/ethanol slurry, and the 5-lipoxygenase products were separated from the substrate on silica gel columns. The amount of individual lipoxygenase products produced was determined and the percent inhibition calculated.

[1] = tested on: arachidonic acid-induced ear edema; test: Arachidonic acid-induced ear edema in CF1 mice, topical; type: in vivo; details: Mus musculus, 1 h, 100 μg/ear, topical in acetone just prior to 1 mg arachidonic acid, one hour after challenge
Description: This assay indicates a specific use in the treatment of skin diseases such as psoriasis. This assay also implies a reduction in leukotrienes caused by the compounds of the invention, and indicates the use of these compounds in other diseases where the production of leukotrienes is involved in the pathological process.
The assay is a modification of the procedure described by Young et al. (J. Invest. Dermatol. (1983) 80, 48). 1 mg of arachidonic acid is applied as an acetone solution to the inner surface of the pinna of CF1 mice. Test compound dissolved in acetone is applied to the ear just prior to the arachidonic acid challenge. One hour after challenge, 6 mm disks are removed from the ear with a biopsy punch, and the weight is determined. The results are determined as a percent inhibition of the swelling which occurs in the absence of the test compound.

Structure (SMILES): Oc1c(Cc2ccccc2)ccc2occc12 [Example 1c]
- IC50 (5-lipoxygenase): 400 nM
- inhibition in vivo at 100 µg/ear [1]: 42%

Structure (SMILES): COc1ccc(Cc2ccc3c(ccn3C)c2OC(C)=O)cc1 [Example 6c]
- inhibition in vivo at 100 µg/ear [1]: 72%

Structure (SMILES): CC(=O)Oc1c(Cc2ccccc2)ccc2c1ccn2C [Example 6a, 1-Methyl-4-acetoxy-5-phenylmethylindole]
- IC50 (5-lipoxygenase): 420 nM
- inhibition in vivo at 100 µg/ear [1]: 72%

Structure (SMILES): COc1ccc(Cc2ccc3c(ccn3C)c2O)cc1 [Example 1e]
- inhibition in vivo at 100 µg/ear [1]: 64%

Structure (SMILES): Cn1ccc2c(O)c(Cc3ccccc3)ccc21 [Example 1a, 1-Methyl-4-hydroxy-5-phenylmethylindole]
- IC50 (5-lipoxygenase): 56 nM
- inhibition in vivo at 100 µg/ear [1]: 74%

Structure (SMILES): Cn1ccc2c(O)c(Cc3ccc4c(c3)OCO4)ccc21 [Example 1g]
- inhibition in vivo at 100 µg/ear [1]: 54%

Structure (SMILES): Oc1c(Cc2ccccc2)ccc2c1ccn2Cc1ccccc1 [Example 1d]
- IC50 (5-lipoxygenase): 42 nM
- inhibition in vivo at 100 µg/ear [1]: 41%

Structure (SMILES): CC(=O)Oc1c(Cc2cccs2)ccc2c1ccn2C [Example 6b]
- inhibition in vivo at 100 µg/ear [1]: 54%

Structure (SMILES): Oc1c(Cc2ccccc2)ccc2sccc12 [Example 1b]
- IC50 (5-lipoxygenase): 130 nM
- inhibition in vivo at 100 µg/ear [1]: 53%

Source: patent US5093351A, “Substituted indole, benzofuran and benzothiophene derivatives as 5-lipoxygenase inhibitors” (Du Pont Merck Pharmaceutical Company, priority 1989, dated 1992)
